Test results reported in article PMC7596181 (Frontiers in Immunology, 2020).

Target: T1, mouse TLR4 (Mus musculus, UniProt Q9JHF9+Q9QUK6)
T1 sequence (Q9QUK6 26-835): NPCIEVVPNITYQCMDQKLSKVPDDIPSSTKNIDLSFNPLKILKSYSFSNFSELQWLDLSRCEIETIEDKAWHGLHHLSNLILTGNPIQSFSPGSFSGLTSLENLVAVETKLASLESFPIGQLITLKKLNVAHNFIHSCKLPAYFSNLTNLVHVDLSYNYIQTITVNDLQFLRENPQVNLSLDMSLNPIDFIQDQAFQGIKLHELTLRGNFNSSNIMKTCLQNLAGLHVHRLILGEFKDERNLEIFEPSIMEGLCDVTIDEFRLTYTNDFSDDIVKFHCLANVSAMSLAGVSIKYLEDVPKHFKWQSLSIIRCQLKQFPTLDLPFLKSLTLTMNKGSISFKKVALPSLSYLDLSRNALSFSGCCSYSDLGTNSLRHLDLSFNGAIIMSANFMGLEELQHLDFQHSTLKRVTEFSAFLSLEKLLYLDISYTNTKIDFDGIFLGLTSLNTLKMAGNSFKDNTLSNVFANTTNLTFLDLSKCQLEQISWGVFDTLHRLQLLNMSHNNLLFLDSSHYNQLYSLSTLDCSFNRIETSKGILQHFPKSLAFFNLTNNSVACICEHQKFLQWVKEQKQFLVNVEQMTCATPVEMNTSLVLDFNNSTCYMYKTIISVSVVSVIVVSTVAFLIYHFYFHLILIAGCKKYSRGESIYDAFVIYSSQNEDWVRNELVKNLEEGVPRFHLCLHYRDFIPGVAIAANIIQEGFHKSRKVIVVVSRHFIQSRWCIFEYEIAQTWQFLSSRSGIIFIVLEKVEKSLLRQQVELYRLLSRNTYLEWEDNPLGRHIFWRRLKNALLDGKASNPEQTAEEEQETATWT
T1 sequence (Q9JHF9 19-160): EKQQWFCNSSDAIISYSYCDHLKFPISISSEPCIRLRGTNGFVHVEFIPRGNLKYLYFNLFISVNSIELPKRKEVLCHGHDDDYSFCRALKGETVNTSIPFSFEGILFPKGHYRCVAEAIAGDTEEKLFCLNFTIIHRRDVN
Test: SEAP assay, agonist dose response in mouse TLR4 HEK-Blue reporter cells
Assay type: cell-based
Set-up: host or cells: HEK-Blue (HEK293-derived) reporter cells
Conditions: for agonist profile: mouse TLR4 HEK-Blue reporter cells
Description: Human and mouse HEK-Blue reporter cells express human or mouse CD14, MD2, and TLR4 and secreted embryonic alkaline phosphatase (SEAP) under control of a promoter with binding sites for NFκB and AP-1 transcription factors (InvivoGen cat. nos. hkb-htlr4 and hkb-mtlr4). Cells were cultured as directed by the supplier, with the exception that Glutamax (ThermoFisher cat. no. 10569010) was used in place of L-glutamine, and TrypLE Express (ThermoFisher cat. no. 12605010) was used to release adherent cells for each passage. BALB/c mouse RAW264.7 and human THP-1 cells (ATCC® cat. nos. TIB-71 and TIB-202) were cultured in DMEM (4.5 g/L D-Glucose with 2 mM L-glutamine, 1 mM sodium pyruvate, 100 U/ml penicillin and 100 μg/ml streptomycin) supplemented with 10% heat-inactivated FBS. THP-1 cells were exposed to phorbol-12-myristate-13-acetate (PMA, InvivoGen cat no. tlrl-pma), 5 ng/ml, for 48 h prior to treatment with TLR4 agonists. Bone marrow-derived dendritic cells (BMDCs) were generated using C57BL/6 mouse femurs following the exact method published by Lutz et al. ([29]) except that 5 rather than 20 ng/ml recombinant GM-CSF was used to differentiate the DC. Human peripheral blood […] (PBMCs) were prepared from venous blood of healthy volunteers that had been collected using sodium citrate as anti-coagulant, 20 ml of which was mixed with 15 ml calcium- and magnesium-free Hank’s Balanced Saline Solution (HBSS) and then laid over 6 ml Histopaque®-1077 (1.077 g/ml, Sigma-Aldrich cat no. 10771) for density gradient centrifugation. The buffy coat layer was collected by pipette, washed once in HBSS, once in serum-free RPMI-1640, and then the PBMCs were resuspended in RPMI-1640 supplemented with 100 U/ml penicillin, 100 µg/ml streptomycin, 1 mM Na-Pyruvate, 2 mM L-glutamine, 50 μM βME and 10% heat-inactivated, male AB human serum for culture.
SEAP assays were performed to evaluate the extent to which TLR4 signaling was activated in HEK-Blue reporter cells expressing mouse or human receptors (CD14, MD2 and TLR4). Reporter cells were harvested when 70–80% confluent and plated in 96-well, flat-bottom microtiter plates either 1 h, one day or two days (5 × 10^4, 4 × 10^4 or 2 × 10^4 cells/well, respectively) before addition of TLR4 agonists for 18–24 h. Culture supernatants were transferred to U-bottom microtiter plates, centrifuged and transferred again to microtiter plates to ensure reporter cells were not present. The culture supernatants were added to QUANTI-BLUE substrate following instructions provided by the manufacturer (InvivoGen cat. nos. rep-qbl or rep-qbs) and incubated at 37°C in a tissue culture incubator. At successive intervals beginning 10 min after mixing the supernatants and substrate, the plates were placed in an Emax plate reader (Molecular Devices LLC) and optical density was measured at visible light wavelength […] (OD650). The shortest incubations at which dose response curve fits produced maximal R^2 ‘goodness of fit’ values, as determined by GraphPad Prism software, were used for analysis.
Pharmacological profiles of the TLR4 reagents were generated by performing dose response curves in one of four formats. 1) Agonist potency and efficacy (EC50 and height of dose plateau, respectively) were measured by diluting TLR4 reagents successively in complete culture medium [DMEM or RPMI supplemented with fetal bovine serum (FBS) or RPMI supplemented with human serum, depending on cell-type]. Half-log step dilutions were performed in 96-well, U-bottom microtiter plates using a multichannel pipette to transfer and mix the suspensions, with fresh tips used for each dilution step. One-tenth (20 μl) volumes from wells of the dilution plate were then transferred to wells containing cells that had been plated in nine-tenth volumes (180 μl) of culture medium. […]

agonist profile	efficacy relative to the full agonist PHAD (mouse TLR4 HEK-Blue, 100% = top dose plateau of PHAD)	Compound
largely inactive		CCCCCCCCCCCC(=O)OC(CCCCCCCCCCC)CC(=O)NC1C(OCC2OC(O)C(NC(=O)CC(O)CCCCCCCCCCC)C(O)C2O)OC(CO)C(OP(=O)(O)O)C1O (stereo not shown) [ML3]
agonist only of mouse TLR4	~80%	CCCCCCCCCCCC(=O)OC(CCCCCCCCCCC)CC(=O)NC1C(OCC2OC(O)C(NC(=O)CC(O)CCCCCCCCCCC)C(O)C2O)OC(CO)C(OP(=O)(O)O)C1OC(=O)CC(O)CCCCCCCCCCC (stereo not shown) [ML4A]
largely inactive		CCCCCCCCCCCCCCCC(=O)OC(CCCCCCCCCCC)CC(=O)NC1C(O)OC(COC2OC(CO)C(OP(=O)(O)O)C(O)C2NC(=O)CC(CCCCCCCCCCC)OC(=O)CCCCCCCCCCC)C(O)C1O (stereo not shown) [ML4B]
